Test results as given in ChEMBL document CHEMBL4396971, “Discovery of potent and orally bioavailable indazole-based glucagon receptor antagonists for the treatment of type 2 diabetes” (Bioorg Med Chem Lett, 2019).

experiment: Stability in human liver microsomes assessed as parent compound remaining at 1 uM incubated for 10 mins; assay type: ADME, Microsome; settings: read-out: Stability

remaining at 10 min, 1 µM [%]	SMILES
62	Cc1cc2c(cnn2[C@@H](CC(C)C)c2ccc(C(=O)NCCC(=O)O)cc2)cc1-c1ccc(C(F)(F)F)cc1Cl

experiment: Stability in mouse liver microsomes assessed as parent compound remaining at 1 uM incubated for 10 mins; assay type: ADME, Microsome; settings: liver microsomes, read-out: Stability

remaining at 10 min, 1 µM [%]	SMILES
99	Cc1cc2c(cnn2[C@@H](CC(C)C)c2ccc(C(=O)NCCC(=O)O)cc2)cc1-c1ccc(C(F)(F)F)cc1Cl

experiment: Stability in rat liver microsomes assessed as parent compound remaining at 1 uM incubated for 10 mins; assay type: ADME, Microsome; settings: read-out: Stability

remaining at 10 min, 1 µM [%]	SMILES
67	Cc1cc2c(cnn2[C@@H](CC(C)C)c2ccc(C(=O)NCCC(=O)O)cc2)cc1-c1ccc(C(F)(F)F)cc1Cl

experiment: Stability in dog liver microsomes assessed as parent compound remaining at 1 uM incubated for 10 mins; assay type: ADME, Canis lupus familiaris, Microsome; settings: liver microsomes, read-out: Stability

remaining at 10 min, 1 µM [%]	SMILES
65	Cc1cc2c(cnn2[C@@H](CC(C)C)c2ccc(C(=O)NCCC(=O)O)cc2)cc1-c1ccc(C(F)(F)F)cc1Cl

experiment: Clearance in C57 mouse at 5 mg/kg, iv or 20 mg/kg, po; assay type: ADME, organism-based; settings: in vivo

clearance [mL/min/kg]	SMILES
2.47	Cc1cc2c(cnn2[C@@H](CC(C)C)c2ccc(C(=O)NCCC(=O)O)cc2)cc1-c1ccc(C(F)(F)F)cc1Cl

experiment: Clearance in Sprague-Dawley rat at 2 mg/kg, iv or 10 mg/kg, po; assay type: ADME, organism-based; settings: in vivo

clearance [mL/min/kg]	SMILES
18.7	Cc1cc2c(cnn2[C@@H](CC(C)C)c2ccc(C(=O)NCCC(=O)O)cc2)cc1-c1ccc(C(F)(F)F)cc1Cl

experiment: Clearance in dog at 2 mg/kg, iv or 10 mg/kg, po; assay type: ADME, organism-based, Canis lupus familiaris; settings: in vivo

clearance [mL/min/kg]	SMILES
0.21	Cc1cc2c(cnn2[C@@H](CC(C)C)c2ccc(C(=O)NCCC(=O)O)cc2)cc1-c1ccc(C(F)(F)F)cc1Cl

experiment: Volume of distribution at steady state in C57 mouse at 5 mg/kg, iv or 20 mg/kg, po; assay type: ADME, organism-based; settings: in vivo, read-out: Vdss

Vd [L/kg]	SMILES
1.45	Cc1cc2c(cnn2[C@@H](CC(C)C)c2ccc(C(=O)NCCC(=O)O)cc2)cc1-c1ccc(C(F)(F)F)cc1Cl

experiment: Volume of distribution at steady state in Sprague-Dawley rat at 2 mg/kg, iv or 10 mg/kg, po; assay type: ADME, organism-based; settings: in vivo, read-out: Vdss

Vd [L/kg]	SMILES
3.32	Cc1cc2c(cnn2[C@@H](CC(C)C)c2ccc(C(=O)NCCC(=O)O)cc2)cc1-c1ccc(C(F)(F)F)cc1Cl

experiment: Volume of distribution at steady state in dog at 2 mg/kg, iv or 10 mg/kg, po; assay type: ADME, organism-based, Canis lupus familiaris; settings: in vivo, read-out: Vdss

Vd [L/kg]	SMILES
0.27	Cc1cc2c(cnn2[C@@H](CC(C)C)c2ccc(C(=O)NCCC(=O)O)cc2)cc1-c1ccc(C(F)(F)F)cc1Cl

experiment: Half life in C57 mouse at 5 mg/kg, iv; assay type: ADME, organism-based; settings: in vivo

half-life [h]	SMILES
7.8	Cc1cc2c(cnn2[C@@H](CC(C)C)c2ccc(C(=O)NCCC(=O)O)cc2)cc1-c1ccc(C(F)(F)F)cc1Cl

experiment: Half life in Sprague-Dawley rat at 2 mg/kg, iv; assay type: ADME, organism-based; settings: in vivo

half-life [h]	SMILES
3.6	Cc1cc2c(cnn2[C@@H](CC(C)C)c2ccc(C(=O)NCCC(=O)O)cc2)cc1-c1ccc(C(F)(F)F)cc1Cl

experiment: Half life in dog at 2 mg/kg, iv; assay type: ADME, organism-based, Canis lupus familiaris; settings: in vivo

half-life [h]	SMILES
16	Cc1cc2c(cnn2[C@@H](CC(C)C)c2ccc(C(=O)NCCC(=O)O)cc2)cc1-c1ccc(C(F)(F)F)cc1Cl

experiment: Half life in C57 mouse at 20 mg/kg, po; assay type: ADME, organism-based; settings: in vivo

half-life [h]	SMILES
9.1	Cc1cc2c(cnn2[C@@H](CC(C)C)c2ccc(C(=O)NCCC(=O)O)cc2)cc1-c1ccc(C(F)(F)F)cc1Cl

experiment: Half life in Sprague-Dawley rat at 10 mg/kg, po; assay type: ADME, organism-based; settings: in vivo

half-life [h]	SMILES
7.1	Cc1cc2c(cnn2[C@@H](CC(C)C)c2ccc(C(=O)NCCC(=O)O)cc2)cc1-c1ccc(C(F)(F)F)cc1Cl

experiment: Half life in dog at 10 mg/kg, po; assay type: ADME, organism-based, Canis lupus familiaris; settings: in vivo

half-life [h]	SMILES
18.9	Cc1cc2c(cnn2[C@@H](CC(C)C)c2ccc(C(=O)NCCC(=O)O)cc2)cc1-c1ccc(C(F)(F)F)cc1Cl

experiment: AUClast in C57 mouse at 5 mg/kg, iv or 20 mg/kg, po; assay type: ADME, organism-based; settings: in vivo

AUC(0-t) [µM·h]	SMILES
254	Cc1cc2c(cnn2[C@@H](CC(C)C)c2ccc(C(=O)NCCC(=O)O)cc2)cc1-c1ccc(C(F)(F)F)cc1Cl

experiment: AUClast in Sprague-Dawley rat at 2 mg/kg, iv or 10 mg/kg, po; assay type: ADME, organism-based; settings: in vivo

AUC(0-t) [µM·h]	SMILES
5.6	Cc1cc2c(cnn2[C@@H](CC(C)C)c2ccc(C(=O)NCCC(=O)O)cc2)cc1-c1ccc(C(F)(F)F)cc1Cl
